Results from the NIST ThermoML archive (doi:10.1021/acs.jced.7b00335).
Numbers after ± are expanded uncertainties.

Assay: xn = mol fraction of the nth substance listed
Conditions: 100 kPa, Liquid; for viscosity: Concentric cylinders viscometry; for mass density: Vibrating tube method

O=Cc1ccccc1 [benzaldehyde] + CCCC(C)O
Conditions | mass density [kg/m3] | viscosity [mPa·s]
293.15 K, x1 = 0.0809 | 825.2 ± 1 | 3.3 ± 0.13
293.15 K, x1 = 0.1662 | 841.4 ± 1 | 2.75 ± 0.11
293.15 K, x1 = 0.2441 | 858.3 ± 1 | 2.36 ± 0.1
293.15 K, x1 = 0.3552 | 882.5 ± 1 | 1.95 ± 0.08
293.15 K, x1 = 0.4418 | 903 ± 1 | 1.757 ± 0.071
293.15 K, x1 = 0.5664 | 933.2 ± 1 | 1.62 ± 0.07
293.15 K, x1 = 0.6565 | 956.4 ± 1 | 1.568 ± 0.064
293.15 K, x1 = 0.7447 | 980 ± 1 | 1.537 ± 0.062
293.15 K, x1 = 0.8528 | 1008.5 ± 1 | 1.516 ± 0.062
293.15 K, x1 = 0.9419 | 1031.8 ± 1 | 1.51 ± 0.06
293.15 K, x1 = 1 | 1046.3 ± 1 | 1.52 ± 0.06
298.15 K, x1 = 0.0809 | 821.1 ± 1 | 2.775 ± 0.11
298.15 K, x1 = 0.1662 | 837.2 ± 1 | 2.35 ± 0.1
298.15 K, x1 = 0.2441 | 854 ± 1 | 2.05 ± 0.08
298.15 K, x1 = 0.3552 | 878.2 ± 1 | 1.731 ± 0.07
298.15 K, x1 = 0.4418 | 898 ± 1 | 1.584 ± 0.064
298.15 K, x1 = 0.5664 | 928.2 ± 1 | 1.458 ± 0.059
298.15 K, x1 = 0.6565 | 951.2 ± 1 | 1.416 ± 0.058
298.15 K, x1 = 0.7447 | 975.4 ± 1 | 1.395 ± 0.057
298.15 K, x1 = 0.8528 | 1004.1 ± 1 | 1.39 ± 0.06
298.15 K, x1 = 0.9419 | 1027.4 ± 1 | 1.395 ± 0.057
298.15 K, x1 = 1 | 1041.7 ± 1 | 1.41 ± 0.06
303.15 K, x1 = 0.0809 | 817 ± 1 | 2.4 ± 0.1
303.15 K, x1 = 0.1662 | 833 ± 1 | 2.06 ± 0.08
303.15 K, x1 = 0.2441 | 849.7 ± 1 | 1.809 ± 0.073
303.15 K, x1 = 0.3552 | 873.9 ± 1 | 1.55 ± 0.06
303.15 K, x1 = 0.4418 | 894.4 ± 1 | 1.411 ± 0.057
303.15 K, x1 = 0.5664 | 923.8 ± 1 | 1.301 ± 0.053
303.15 K, x1 = 0.6565 | 946.9 ± 1 | 1.259 ± 0.051
303.15 K, x1 = 0.7447 | 971 ± 1 | 1.25 ± 0.05
303.15 K, x1 = 0.8528 | 1000 ± 1 | 1.259 ± 0.051
303.15 K, x1 = 0.9419 | 1023.1 ± 1 | 1.28 ± 0.05
303.15 K, x1 = 1 | 1037.1 ± 1 | 1.31 ± 0.05
308.15 K, x1 = 0.0809 | 812.9 ± 1 | 2.035 ± 0.083
308.15 K, x1 = 0.1662 | 828.8 ± 1 | 1.78 ± 0.07
308.15 K, x1 = 0.2441 | 845.5 ± 1 | 1.584 ± 0.064
308.15 K, x1 = 0.3552 | 869.6 ± 1 | 1.369 ± 0.056
308.15 K, x1 = 0.4418 | 890.3 ± 1 | 1.25 ± 0.05
308.15 K, x1 = 0.5664 | 919.3 ± 1 | 1.159 ± 0.047
308.15 K, x1 = 0.6565 | 942.3 ± 1 | 1.128 ± 0.046
308.15 K, x1 = 0.7447 | 966.5 ± 1 | 1.117 ± 0.046
308.15 K, x1 = 0.8528 | 995.5 ± 1 | 1.138 ± 0.046
308.15 K, x1 = 0.9419 | 1018 ± 1 | 1.175 ± 0.048
308.15 K, x1 = 1 | 1032.4 ± 1 | 1.22 ± 0.05
313.15 K, x1 = 0.0809 | 808.6 ± 1 | 1.746 ± 0.071
313.15 K, x1 = 0.1662 | 824.4 ± 1 | 1.537 ± 0.062
313.15 K, x1 = 0.2441 | 841.1 ± 1 | 1.37 ± 0.06
313.15 K, x1 = 0.3552 | 865.2 ± 1 | 1.185 ± 0.048
313.15 K, x1 = 0.4418 | 885.2 ± 1 | 1.088 ± 0.044
313.15 K, x1 = 0.5664 | 914.8 ± 1 | 1.021 ± 0.042
313.15 K, x1 = 0.6565 | 937.8 ± 1 | 0.999 ± 0.041
313.15 K, x1 = 0.7447 | 962 ± 1 | 0.999 ± 0.041
313.15 K, x1 = 0.8528 | 991.1 ± 1 | 1.035 ± 0.042
313.15 K, x1 = 0.9419 | 1013.9 ± 1 | 1.088 ± 0.044
313.15 K, x1 = 1 | 1027.9 ± 1 | 1.15 ± 0.05
318.15 K, x1 = 0.0809 | 804.2 ± 1 | 1.46 ± 0.06
318.15 K, x1 = 0.1662 | 820 ± 1 | 1.291 ± 0.053
318.15 K, x1 = 0.2441 | 836.7 ± 1 | 1.167 ± 0.048
318.15 K, x1 = 0.3552 | 860.8 ± 1 | 1.032 ± 0.042
318.15 K, x1 = 0.4418 | 881.4 ± 1 | 0.963 ± 0.039
318.15 K, x1 = 0.5664 | 910.4 ± 1 | 0.9 ± 0.04
318.15 K, x1 = 0.6565 | 933.4 ± 1 | 0.881 ± 0.036
318.15 K, x1 = 0.7447 | 957.4 ± 1 | 0.884 ± 0.036
318.15 K, x1 = 0.8528 | 986.6 ± 1 | 0.932 ± 0.038
318.15 K, x1 = 0.9419 | 1009.1 ± 1 | 1.011 ± 0.041
318.15 K, x1 = 1 | 1023.4 ± 1 | 1.09 ± 0.04
323.15 K, x1 = 0.0809 | 799.7 ± 1 | 1.206 ± 0.049
323.15 K, x1 = 0.1662 | 815.6 ± 1 | 1.068 ± 0.044
323.15 K, x1 = 0.2441 | 832.2 ± 1 | 0.984 ± 0.04
323.15 K, x1 = 0.3552 | 856.3 ± 1 | 0.887 ± 0.036
323.15 K, x1 = 0.4418 | 876.9 ± 1 | 0.831 ± 0.034
323.15 K, x1 = 0.5664 | 906.7 ± 1 | 0.789 ± 0.032
323.15 K, x1 = 0.6565 | 928.9 ± 1 | 0.782 ± 0.032
323.15 K, x1 = 0.7447 | 952.9 ± 1 | 0.799 ± 0.033
323.15 K, x1 = 0.8528 | 981.6 ± 1 | 0.85 ± 0.04
323.15 K, x1 = 0.9419 | 1004.5 ± 1 | 0.941 ± 0.038
323.15 K, x1 = 1 | 1019.1 ± 1 | 1.03 ± 0.04
